Reference: US10238667B2, “Vitamin D receptor/SMAD genomic circuit gates fibrotic response” (Salk Institute for Biological Studies, priority 2013, dated 2019)

What was measured:
SMAD3 = assay: ChIP-Seq signal intensity at VDR/SMAD3 co-occupied sites in LX-2 cells (SMAD3); assay type: cell-based, human; conditions: TGFβ1 1 ng/ml ± calcipotriol 100 nM, 4 hours
From the text: FIGS. 10A-10G. Genomic Antagonism between VDR and SMAD. […] The three co-occupied sites are designated as 1, 2 and 3. (D) and (F) ChIP-qPCR at COL1A1 regulatory region #1 co-bound by VDR and SMAD3 in LX-2 cells treated as above. (E) and (G) ChIP-qPCR at COL1A1 regulatory region #1 of control (siCNTL), VDR-specific (siVDR), or SMAD3-specific (siSMAD3) siRNA transfected LX-2 cells treated as above. Occupancy is expressed relative to input chromatin. Data represents the mean±SEM of at least three independent experiments performed in triplicate. Asterisks denote statistically significant differences (Student's t-test, *p<0.05, **p<0.01).
Cells were then harvested for ChIP assay. The experimental procedure for ChIP was as previously described (Barish et al., 2010). […]
The procedure was as previously described (Barish et al., 2010). Briefly, short DNA reads were aligned against the human hg18 reference genome (NCBI Build 36.1) using the Illumina Pipeline Suite v1.7. Reads were aligned using the Bowtie aligner allowing up to 2 mismatches in the read. […] The threshold for the number of tags that determine a valid peak was selected for a false discovery rate of <0.0001, as empirically determined by repeating the peak finding procedure using randomized tag positions. […]

[1] = system: NCoR, SMRT, HDAC3, CoREST, LSD1, and G9a; assay: ChIP-qPCR of corepressor recruitment at COL1A1 and COL1A2 regulatory regions in LX-2 cells; assay type: cell-based, human; conditions: calcipotriol 100 nM and TGFβ1 1 ng/ml
From the text: FIGS. 12A-12B. Coactivator/Corepressor Recruitment and Histone H3 Acetylation Status at Regulatory Regions of Fibrotic Genes Co-occupied by VDR and SMAD. […] The level of occupancy is expressed relative to input chromatin in LX-2 cells treated with corresponding conditions. Data represents the mean+/−SEM of at least three independent experiments performed in triplicate. Asterisks denote statistically significant differences (Student's t test, *p<0.05). […] The level of occupancy is expressed relative to input chromatin in LX-2 cells treated with corresponding conditions.
Cells were then harvested for ChIP assay. The experimental procedure for ChIP was as previously described (Barish et al., 2010). Briefly, after fixation, nuclei from LX-2 cells were isolated, lysed and sheared with a Diagenode Bioruptor to yield DNA fragment sizes of 200-1000 base pairs followed by immunoprecipitation using antibodies listed below: normal rabbit IgG (Santa Cruz, sc-2027), VDR (Santa Cruz, sc-1008), SMAD3 (Abcam, ab28379) and histone H3 (Abcam, ab1791). For ChIP-Re-ChIP, after first ChIP, the immunoprecipitated DNA-protein complex was eluted from beads using 10 mM DTT, diluted 100-fold then re-immunoprecipitated with a second antibody, re-ChIP.

primary mouse HSCs = assay: Fibrotic gene expression in primary mouse HSCs; assay type: cell-based; conditions: primary mouse HSCs (data not shown)
Experimental: HSCs were isolated from 10-week old male C57BL/6J mice and Wistar rats by in situ pronase, collagenase perfusion and single-step Histogenz gradient as previously reported (Hendriks et al., 1985; Knook et al., 1982). Isolated HSCs were cultured in DMEM (Mediatech) containing 20% FBS (Hyclone) on 6-well plates for 40 hours prior to end-point assays.
LX-2 cells, a generous gift from Professor Scott Friedman, Mount Sinai School of Medicine, New York, N.Y., were cultured as described previously (Xu et al., 2005). […] For luciferase assays, DNA transfections were performed using Fugene 6 (Roche) following the manufacturer's instructions. […] RT-qPCR, total RNA was purified following TRIzol extraction and treated with DNaseI (Invitrogen). cDNA synthesis was carried out with iScript RT Supermix (Biorad). Quantitative PCR was performed in technical triplicates using SYBR Green reagent (Biorad). The relative standard curve method was used for quantitation (Biorad). Expression levels were calculated by normalization to either Gapdh (mouse) or U36B4 (human) quantities.

rat HSCs = assay: Microarray of culture-induced activation of HSCs; assay type: cell-based; conditions: 3 days culture on plastic, 10 nM 1,25(OH)2D3
Experimental: VDR Signaling Suppresses TGFβ-induced Pro-Fibrotic Genes. (A) Heat map comparing 519 differentially expressed genes in freshly isolated rat HSCs (quiescent HSCs, Q-HSCs), activated HSCs (A-HSCs, 3 days culture on plastic) and cells cultures in the presence of 10 nM 1,25(OH)2D3 (A-HSCs+1,25(OH)2D3). Euclidean clustering of both rows and columns using log2 transformed microarray expression data, n=2 per treatment group. […] Data represents the mean±SEM of at least three independent experiments performed in triplicate. Asterisks denote statistically significant differences (Student's unpaired t-test, *p<0.05, **p<0.01). HSCs were isolated from 10-week old male C57BL/6J mice and Wistar rats by in situ pronase, collagenase perfusion and single-step Histogenz gradient as previously reported (Hendriks et al., 1985; Knook et al., 1982). Isolated HSCs were cultured in DMEM (Mediatech) containing 20% FBS (Hyclone) on 6-well plates for 40 hours prior to end-point assays. Total RNA from primary rat or mouse HSCs was isolated using the RNeasy mini kit (Qiagen) according to standard protocols. RNA integrity and quality was assessed using the Agilent Bioanalyzer and prepared for hybridization to Illumina rat or mouse gene expression arrays according to standard Illumina protocols. Feature extraction was performed using the Illumina GenomeStudio software. […]

SMILES | TGFβ-induced recruitment of SMAD3 globally compromised (SMAD3) [fold] | altered binding of corepressors to VDR/SMAD3 co-occupied regulatory regions [1] | fibrotic gene expression (primary mouse HSCs) | culture-induced activation of HSCs (transcriptome) (rat HSCs)
C=C1/C(=C\C=C2/CCC[C@]3(C)[C@@H]([C@H](C)/C=C/[C@@H](O)C4CC4)CC[C@@H]23)C[C@@H](O)C[C@@H]1O [calcipotriol, 1α,24-(OH)2-24-cyclopropyl-D3] | ~1.5 | not detected | potently repressed | 
C=C1/C(=C\C=C2/CCC[C@]3(C)C([C@H](C)CCCC(C)(C)O)CC[C@@H]23)C[C@@H](O)C[C@@H]1O (stereo partly drawn) [1,25(OH)2D3, 1α,25 dihydroxyvitamin D3] |  |  |  | attenuated
